According to PubChem BioAssay AID248 (DTP/NCI, 2004):
Where “and” joins values, the source holds several entries; their conditions need not be identical. Identical values can stand only once. Toxic doses and inconclusive results are not listed.

Test system: L1210 leukemia ip in BDF1 mice, survival T/C
Assay: NCI In Vivo Anticancer Drug Screen. Data for tumor model L1210 Leukemia (intraperitoneal) in B6D2F1 (BDF1) mice
Conditions: higher = longer survival
How it was run: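 Survival endpoint. Drug-treated group vs vehicle group, expressed as T divided by C. Tumor passaged by transplantation.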

[1] = endpoint: mean survival time, dose: 100.0 mg/kg/injection, schedule: Q01DX001 (ip), vehicle: saline
[2] = endpoint: mean survival time, dose: 200.0 mg/kg/injection, schedule: Q01DX001 (ip), vehicle: saline
[3] = endpoint: mean survival time, dose: 400.0 mg/kg/injection, schedule: Q01DX001 (ip), vehicle: saline
[4] = endpoint: mean survival time, dose: 25.0 mg/kg/injection, schedule: Q04DX003 (ip), vehicle: saline with Tween-80
[5] = endpoint: mean survival time, dose: 50.0 mg/kg/injection, schedule: Q04DX003 (ip), vehicle: saline with Tween-80
[6] = endpoint: mean survival time, dose: 100.0 mg/kg/injection, schedule: Q04DX003 (ip), vehicle: saline with Tween-80
[7] = endpoint: mean survival time, dose: 100.0 mg/kg/injection, schedule: Q01DX009 (ip), vehicle: Klucel (hydroxypropylcellulose) (HPC)
[8] = endpoint: mean survival time, dose: 200.0 mg/kg/injection, schedule: Q01DX009 (ip), vehicle: Klucel (hydroxypropylcellulose) (HPC)
[9] = endpoint: mean survival time, dose: 400.0 mg/kg/injection, schedule: Q01DX009 (ip), vehicle: Klucel (hydroxypropylcellulose) (HPC)
[10] = endpoint: mean survival time, dose: 100.0 mg/kg/injection, schedule: Q01DX009 (ip), vehicle: saline with Tween-80
[11] = endpoint: mean survival time, dose: 200.0 mg/kg/injection, schedule: Q01DX009 (ip), vehicle: saline with Tween-80
[12] = endpoint: mean survival time, dose: 200.0 mg/kg/injection, schedule: Q04DX003 (ip), vehicle: saline with Tween-80
[13] = endpoint: mean survival time, dose: 400.0 mg/kg/injection, schedule: Q01DX009 (ip), vehicle: saline with Tween-80
[14] = endpoint: mean survival time, dose: 400.0 mg/kg/injection, schedule: Q04DX003 (ip), vehicle: saline with Tween-80
[15] = endpoint: mean survival time, dose: 100.0 mg/kg/injection, schedule: Q01DX001 (ip), vehicle: carboxymethylcellulose (CMC)
[16] = endpoint: mean survival time, dose: 200.0 mg/kg/injection, schedule: Q01DX001 (ip), vehicle: carboxymethylcellulose (CMC)
[17] = endpoint: mean survival time, dose: 400.0 mg/kg/injection, schedule: Q01DX001 (ip), vehicle: carboxymethylcellulose (CMC)

SMILES: CCCCCCCCCCCCCCCCCC[P+](CCCC)(CCCC)CCCC
- T/C (endpoint: mean survival time, dose: 0.75 mg/kg/injection, schedule: Q04DX002 (ip), vehicle: saline with Tween-80): 110 % of control
- T/C (endpoint: mean survival time, dose: 1.5 mg/kg/injection, schedule: Q04DX002 (ip), vehicle: saline with Tween-80): 90 % of control
- T/C (endpoint: mean survival time, dose: 3.0 mg/kg/injection, schedule: Q04DX002 (ip), vehicle: saline with Tween-80): 100 % of control
- T/C (endpoint: mean survival time, dose: 3.12 mg/kg/injection, schedule: Q04DX002 (ip), vehicle: saline with Tween-80): 87 % of control
- T/C (endpoint: mean survival time, dose: 6.25 mg/kg/injection, schedule: Q04DX002 (ip), vehicle: saline with Tween-80): 94 % of control

SMILES: O=C(NCCN1CC1)C(=O)NCCN1CC1
- T/C (endpoint: mean survival time, dose: 1.7 mg/kg/injection, schedule: Q04DX003 (ip), vehicle: Klucel (hydroxypropylcellulose) (HPC)): 173 % of control
- T/C (endpoint: mean survival time, dose: 2.6 mg/kg/injection, schedule: Q04DX003 (ip), vehicle: Klucel (hydroxypropylcellulose) (HPC)): 153 % of control and 186 % of control
- T/C (endpoint: mean survival time, dose: 3.12 mg/kg/injection, schedule: Q04DX003 (ip), vehicle: Klucel (hydroxypropylcellulose) (HPC)): 187 % of control
- T/C (endpoint: mean survival time, dose: 3.12 mg/kg/injection, schedule: Q04DX003 (ip), vehicle: saline with Tween-80): 179 % of control
- T/C (endpoint: mean survival time, dose: 4.0 mg/kg/injection, schedule: Q04DX003 (ip), vehicle: Klucel (hydroxypropylcellulose) (HPC)): 207 % of control
- T/C (endpoint: mean survival time, dose: 6.0 mg/kg/injection, schedule: Q04DX003 (ip), vehicle: Klucel (hydroxypropylcellulose) (HPC)): 95 % of control
- T/C (endpoint: mean survival time, dose: 6.25 mg/kg/injection, schedule: Q04DX003 (ip), vehicle: Klucel (hydroxypropylcellulose) (HPC)): 258 % of control
- T/C (endpoint: mean survival time, dose: 12.5 mg/kg/injection, schedule: Q04DX003 (ip), vehicle: Klucel (hydroxypropylcellulose) (HPC)): 122 % of control

SMILES: O=[N+]([O-])c1ccc(Cl)cc1/C=N/N1CCN(/N=C/c2cc(Cl)ccc2[N+](=O)[O-])CC1
- T/C [1]: 93 % of control
- T/C [2]: 93 % of control
- T/C [3]: 93 % of control

SMILES: O=S1(=O)c2ccccc2C(=NO)c2ccccc21
- T/C (endpoint: mean survival time, dose: 75.0 mg/kg/injection, schedule: Q01DX009 (ip), vehicle: other): 98 % of control
- T/C [1]: 97 % of control
- T/C (endpoint: mean survival time, dose: 150.0 mg/kg/injection, schedule: Q01DX009 (ip), vehicle: other): 98 % of control
- T/C [2]: 94 % of control
- T/C (endpoint: mean survival time, dose: 300.0 mg/kg/injection, schedule: Q01DX009 (ip), vehicle: other): 93 % of control
- T/C [3]: 97 % of control

SMILES: O=c1ccoc(-c2cc(=O)cco2)c1
- T/C [4]: 97 % of control
- T/C [5]: 93 % of control
- T/C [6]: 95 % of control

SMILES: COc1cc(N=Nc2cccc([N+](=O)[O-])c2)ccc1N(CCCl)CCCl
- T/C (endpoint: median survival time, dose: 100.0 mg/kg/injection, schedule: Q01DX009 (ip), vehicle: Klucel (hydroxypropylcellulose) (HPC)): 98 % of control
- T/C (endpoint: median survival time, dose: 200.0 mg/kg/injection, schedule: Q01DX009 (ip), vehicle: Klucel (hydroxypropylcellulose) (HPC)): 100 % of control
- T/C (endpoint: median survival time, dose: 400.0 mg/kg/injection, schedule: Q01DX009 (ip), vehicle: Klucel (hydroxypropylcellulose) (HPC)): 104 % of control

SMILES: Cc1ccc([N+](=O)[O-])cc1NC(=O)Nc1cccc(C(F)(F)F)c1
- T/C (endpoint: mean survival time, dose: 25.0 mg/kg/injection, schedule: Q01DX009 (ip), vehicle: Klucel (hydroxypropylcellulose) (HPC)): 102 % of control
- T/C (endpoint: mean survival time, dose: 50.0 mg/kg/injection, schedule: Q01DX009 (ip), vehicle: Klucel (hydroxypropylcellulose) (HPC)): 92 % of control
- T/C [7]: 86 % of control
- T/C [8]: 87 % of control
- T/C [9]: 87 % of control

SMILES: O=C(O)C(c1cccs1)c1cccs1
- T/C [10]: 102 % of control
- T/C [6]: 102 % of control
- T/C [11]: 88 % of control
- T/C [12]: 92 % of control
- T/C [13]: 105 % of control
- T/C [14]: 103 % of control

SMILES: O=[N+]([O-])c1ccc(OCc2ccccc2)c([N+](=O)[O-])c1
- T/C [10]: 90 % of control
- T/C [6]: 90 % of control
- T/C [11]: 87 % of control
- T/C [12]: 90 % of control
- T/C [13]: 87 % of control
- T/C [14]: 89 % of control

SMILES: COc1ccc(-c2ccc(CC(N)=O)cc2)cc1Cl
- T/C [15]: 91 % of control
- T/C [16]: 94 % of control
- T/C [17]: 89 % of control

SMILES: Cc1cc(C)c(O)c(C(C)(C)C)c1
- T/C [5]: 102 % of control
- T/C [6]: 101 % of control
- T/C [12]: 107 % of control

SMILES: O=C(O)c1ccc(CBr)cc1CBr
- T/C (endpoint: mean survival time, dose: 6.25 mg/kg/injection, schedule: Q01DX009 (ip), vehicle: saline with Tween-80): 103 % of control
- T/C (endpoint: mean survival time, dose: 6.25 mg/kg/injection, schedule: Q04DX003 (ip), vehicle: saline with Tween-80): 93 % of control
- T/C (endpoint: mean survival time, dose: 12.5 mg/kg/injection, schedule: Q01DX009 (ip), vehicle: saline with Tween-80): 101 % of control
- T/C (endpoint: mean survival time, dose: 12.5 mg/kg/injection, schedule: Q04DX003 (ip), vehicle: saline with Tween-80): 96 % of control
- T/C (endpoint: mean survival time, dose: 25.0 mg/kg/injection, schedule: Q01DX009 (ip), vehicle: saline with Tween-80): 94 % of control
- T/C [4]: 102 % of control

SMILES: O=c1[nH]nnc2ncn(C3OC(CO)C(O)C3O)c12 (configuration not stated)
- T/C (endpoint: mean survival time, dose: 100.0 mg/kg/injection, schedule: Q01DX005 (ip), vehicle: saline): 91 % of control
- T/C (endpoint: mean survival time, dose: 200.0 mg/kg/injection, schedule: Q01DX005 (ip), vehicle: saline): 87 % of control

SMILES: O=Cc1cccc(/C=N/Nc2nnc(N/N=C/c3cccc(C=O)c3)c3ccccc23)c1
- T/C (endpoint: mean survival time, dose: 50.0 mg/kg/injection, schedule: Q01DX001 (ip), vehicle: saline): 98 % of control
- T/C [1]: 98 % of control
- T/C [2]: 90 % of control
- T/C [3]: 93 % of control

SMILES: CCP(=O)(CC)OCCCCOP(=O)(CC)CC
- T/C (endpoint: mean survival time, dose: 75.0 mg/kg/injection, schedule: Q01DX Z (ip), vehicle: saline): 104 % of control
- T/C (endpoint: mean survival time, dose: 100.0 mg/kg/injection, schedule: Q01DX Z (ip), vehicle: saline): 98 % of control

SMILES: NC(Cc1c[nH]c2ccc(O)cc12)C(=O)O (configuration not stated)
- T/C [15]: 95 % of control
- T/C [16]: 102 % of control
- T/C [17]: 100 % of control

SMILES: CCc1ccc(C2=C(Cl)C(=O)C(c3ccc(CC)cc3)=C(Cl)C2=O)cc1
- T/C (endpoint: mean survival time, dose: 10.0 mg/kg/injection, schedule: Q01DX001 (ip), vehicle: carboxymethylcellulose (CMC)): 100 % of control
- T/C (endpoint: mean survival time, dose: 20.0 mg/kg/injection, schedule: Q01DX001 (ip), vehicle: carboxymethylcellulose (CMC)): 100 % of control
- T/C (endpoint: mean survival time, dose: 40.0 mg/kg/injection, schedule: Q01DX001 (ip), vehicle: carboxymethylcellulose (CMC)): 102 % of control
- T/C (endpoint: mean survival time, dose: 80.0 mg/kg/injection, schedule: Q01DX001 (ip), vehicle: carboxymethylcellulose (CMC)): 100 % of control
- T/C [15]: 88 % of control

SMILES: Cc1cc(C)c(B(O)O)c(C)c1
- T/C (endpoint: mean survival time, dose: 100.0 mg/kg/injection, schedule: Q01DX009 (ip), vehicle: saline): 100 % of control
- T/C (endpoint: mean survival time, dose: 100.0 mg/kg/injection, schedule: Q04DX003 (ip), vehicle: saline): 105 % of control
- T/C (endpoint: mean survival time, dose: 200.0 mg/kg/injection, schedule: Q01DX009 (ip), vehicle: saline): 96 % of control
- T/C (endpoint: mean survival time, dose: 200.0 mg/kg/injection, schedule: Q04DX003 (ip), vehicle: saline): 100 % of control
- T/C (endpoint: mean survival time, dose: 400.0 mg/kg/injection, schedule: Q01DX009 (ip), vehicle: saline): 103 % of control
- T/C (endpoint: mean survival time, dose: 400.0 mg/kg/injection, schedule: Q04DX003 (ip), vehicle: saline): 102 % of control

SMILES: CC(C)(C)C1COP(=O)(OCc2ccccc2)OC1 (configuration not stated)
- T/C (endpoint: mean survival time, dose: 100.0 mg/kg/injection, schedule: Q04DX003 (ip), vehicle: other): 92 % of control
- T/C (endpoint: mean survival time, dose: 200.0 mg/kg/injection, schedule: Q04DX003 (ip), vehicle: other): 91 % of control

SMILES: CC(=O)OCCN1C(=O)CN=C(c2ccccn2)c2cc(Cl)ccc21
- T/C [7]: 99 % of control
- T/C (endpoint: mean survival time, dose: 100.0 mg/kg/injection, schedule: Q04DX003 (ip), vehicle: Klucel (hydroxypropylcellulose) (HPC)): 100 % of control
- T/C [8]: 102 % of control
- T/C (endpoint: mean survival time, dose: 200.0 mg/kg/injection, schedule: Q04DX003 (ip), vehicle: Klucel (hydroxypropylcellulose) (HPC)): 101 % of control
- T/C [9]: 94 % of control
- T/C (endpoint: mean survival time, dose: 400.0 mg/kg/injection, schedule: Q04DX003 (ip), vehicle: Klucel (hydroxypropylcellulose) (HPC)): 97 % of control
